# Source: US5567694A, “17-Aryl and 17-heterocyclyl-5β,14β-androstane derivatives active on the cardiovascular system, processes for their preparation and pharmaceutical compositions containing same” (SIGMA-TAU Industrie Farmaceutiche Riunite S.p.A., priority 1992, dated 1996)
# Assays:
# Na^+,K^+ -ATPase [1] = assay type: binding; conditions: ^3 H-ouabain displacement, purified Na^+,K^+ -ATPase receptor
# From the text: (§1) To test the affinity for the receptor site of the Na^+,K^+ -ATPase and the inhibitory activity on the enzyme, the following tests were used:
# a) displacement of the specific ^3 H-ouabain binding from the Na^+,K^+ -ATPase receptor purified according to Jorghensen (Jorghensen P., BBA, 1974, 356, 36) and Erdmann ( Erdmann E. et al., Arzneim. Forsh., 1984, 34, 13 14);
# Na^+,K^+ -ATPase [2] = assay type: biochemical; parameters: unit not given here; conditions: hydrolysis of ^32 P-ATP, purified Na^+,K^+ -ATPase
# From the text: as §1
# b) inhibition of the activity of the purified Na^+,K^+ -ATPase measured as % of hydrolysis of ^32 P-ATP in presence and in absence of the tested compound (Doucet A. et al., Am.
# [3] = tested on: spontaneous hypertensive rats of the Milan (MHS); test: systolic blood pressure and heart rate in spontaneous hypertensive rats (MHS), indirect tail-cuff; assay type: in vivo, rat; conditions: for SBP (systolic blood pressure) / HR (heart rate): MHS rats, n = 7, 20 mg/Kg/os daily for ten days in METHOCEL 0.5% w/v; for SBP (systolic blood pressure): controls 172 +/- 2.0; for HR (heart rate): controls 328 +/- 8.6
# Description: The ability of these compounds to lower blood pressure was tested by using animal models with genetic arterial hypertension, in particular, spontaneous hypertensive rats of the Milan (MHS) (Bianchi G., Ferrari P., Barber B., The Milan Hypertensive strain. In Handbook of hypertension. Vol.4: Experimental and genetic models of hypertension. Ed. W. de jong-Elsevier Science Publishers B.V.,1984: 328-349).
# The procedure adopted to test the antihypertensive activity of the compounds on the above mentioned model was the following:
# systolic blood pressure (SBP) and heart rate (HR) were measured by an indirect tail-cuff method in three-month old hypertensive rats (MHS) before beginning the treatment (basal values). The rats were then subdivided in two groups of at least 7 animals each, one receiving the compound the other, the control group, receiving only the vehicle. The compound, suspended in METHOCEL 0.5% (w/v), was administered daily by mouth, for ten days. SBP and HR were measured daily 6 and 24 hours after the treatment. At the end of the ten day treatment period, a washout period of at least two days was carried out, in order to check for how long the SBP was mantained low or the basal values were re-established.
Compound,"Binding ^3 H-Ouab. Displacement log IC50 (Na^+,K^+ -ATPase [1])","Inhibitory Activity log IC50 (Na^+,K^+ -ATPase [2])",SBP (systolic blood pressure) [3],HR (heart rate) [3],antihypertensive action ([3]; statement in words)
"C[C@]12CC[C@H](O)C[C@H]1CC[C@@H]1[C@@H]2CC[C@]2(C)[C@@](O)(c3ccsc3)CC[C@]12O [Comp. 1-ba, 17β-(3-Thienyl)-5β-androstane-3β,14β,17α-triol]",5.7,4.5,–,–,–
"C[C@]12CC[C@H](O)C[C@H]1CC[C@@H]1[C@@H]2CC[C@]2(C)[C@@](O)(c3cccnc3)CC[C@]12O [Comp. 1-bb, 17β-(3-Pyridyl)-5β-androstane-3β,14β,17α-triol]",5.4,4.3,154 +/- 3.0 mm Hg,339 +/- 6.8 beats/min.,–
"C[C@]12CC[C@H](O)C[C@H]1CC[C@@H]1[C@@H]2CC[C@]2(C)[C@@](O)(c3ccccc3)CC[C@]12O [Comp. I-ac, 17β-Phenyl-5β-androstane-3β,14β,17α-triol]",5.4,4.1,160 +/- 4.5 mm Hg,331 +/- 8.5 beats/min.,–
"C[C@]12CC[C@H](OCCO)C[C@H]1CC[C@@H]1[C@@H]2CC[C@]2(C)[C@@](O)(c3ccccc3)CC[C@]12O [Comp. I-ad, 3β-(2-Hydroxyethoxy)-17β-phenyl-5β-androstane-14β,17α-diol]",5.2,4.0,–,–,–
"CN(C)CCCO[C@H]1CC[C@@]2(C)[C@H](CC[C@@H]3[C@@H]2CC[C@]2(C)[C@@](O)(c4ccccc4)CC[C@]32O)C1 [Comp. I-ae, 3β-(3-Dimethylaminopropoxy)-17β-phenyl-5β-androstane-14β,17α-diol]",5.9,4.7,–,–,–
"C[C@]12CC[C@H](OCCCN)C[C@H]1CC[C@@H]1[C@@H]2CC[C@]2(C)[C@@](O)(c3ccccc3)CC[C@]12O [Comp. I-ag, 3β-(3-Aminopropoxy)-17β-phenyl-5β-androstane-14β,17α-diol]",5.9,4.6,157 +/- 4.2 mm Hg,330 +/- 9.8 beats/min.,–
"C[C@]12CC[C@H](OCCN3CCCC3)C[C@H]1CC[C@@H]1[C@@H]2CC[C@]2(C)[C@@](OCCN3CCCC3)(c3ccccc3)CC[C@]12O [Comp. I-ai, 3β,17α-Bis(2-(1-pyrrolidinyl)ethoxy)-17β-phenyl-5β-androstan-14β-ol]",5.0,–,–,–,–
"CNCCO[C@H]1CC[C@@]2(C)[C@H](CC[C@@H]3[C@@H]2CC[C@]2(C)[C@@](O)(c4ccccc4)CC[C@]32O)C1 [Comp. I-am, 3β-(2-Methylaminoethoxy)-17β-phenyl-5β-androstane-14β,17α-diol]",5.9,4.8,–,–,–
"C[C@]12CC[C@H](OCC(O)CO)C[C@H]1CC[C@@H]1[C@@H]2CC[C@]2(C)[C@@](O)(c3ccccc3)CC[C@]12O (stereo partly drawn) [Comp. I-ao, 3β-((2RS)-2,3-Dihydroxypropoxy)-17β-phenyl-5β-androstane-14β,17α-diol]",5.5,4.2,–,–,–
"C[C@]12CC[C@H](OCC(N)CN)C[C@H]1CC[C@@H]1[C@@H]2CC[C@]2(C)[C@@](O)(c3ccccc3)CC[C@]12O (stereo partly drawn) [Comp. I-ap, 3β-((2RS)-2,3-Diaminopropoxy)-17β-phenyl-5β-androstane-14β,17α-diol]",5.8,4.6,–,–,–
"C[C@]12CCC(=NNC(=N)N)C[C@H]1CC[C@@H]1[C@@H]2CC[C@]2(C)[C@@](O)(c3ccccc3)CC[C@]12O [Comp. I-ar, 3-Guanidinoimino-17β-phenyl-5β-androstane-14β,17α-diol]",5.8,4.6,–,–,–
"COc1ccc([C@@]2(O)CC[C@]3(O)[C@@H]4CC[C@@H]5C[C@@H](O)CC[C@]5(C)[C@H]4CC[C@]23C)cc1 [Comp. I-au, 17β-(4-Methoxyphenyl)-5β-androstane-3β,14β,17α-triol]",5.6,4.5,156 +/- 4.1 mm Hg,335 +/- 10.5 beats/min.,–
"CCN(CC)CCO[C@H]1CC[C@@]2(C)[C@H](CC[C@@H]3[C@@H]2CC[C@]2(C)[C@@](O)(c4ccc(OC)cc4)CC[C@]32O)C1 [Comp. I-av, 3β-(2-Diethylaminoethory)-17β-(4-methoxyphenyl)-5β-androstane-14β,17α-diol]",6.0,4.8,–,–,–
"C[C@]12CC[C@H](O)C[C@H]1CC[C@@H]1[C@@H]2CC[C@]2(C)[C@@](O)(c3ccc(O)cc3)CC[C@]12O [Comp. I-ay, 17β-(4-Hydroxyphenyl)-5β-androstane-3β,14β,17α-triol]",5.6,4.5,–,–,–
"Cc1ncc([C@@]2(O)CC[C@]3(O)[C@@H]4CC[C@@H]5C[C@@H](O)CC[C@]5(C)[C@H]4CC[C@]23C)n1C [Comp. I-be, 17β-(1,2-Dimethyl-5-imidazolyl)-5β-androstane-3β,14β,17α-triol]",5.4,–,–,–,–
"CN(C)c1ccc([C@@]2(O)CC[C@]3(O)[C@@H]4CC[C@@H]5C[C@@H](O)CC[C@]5(C)[C@H]4CC[C@]23C)cc1 [Comp. I-bf, 17β-(4-(N,N-Dimethylaminophenyl))-5β-androstane-3β,14β,17α-triol]",5.7,4.6,–,–,–
C[C@]12CC[C@H](SCCCN)C[C@H]1CC[C@@H]1[C@@H]2CC[C@]2(C)[C@@](O)(c3ccccc3)CC[C@]12O [Comp. I-bj],5.7,4.6,–,–,–
"C[C@]12CC[C@H](O)C[C@H]1CC[C@@H]1[C@@H]2CC[C@]2(C)[C@@](O)(C3=CC(=O)OC3)CC[C@]12O [Ref. comp., 3β,14β,17α-trihydroxy-5β-card-20(22)-enolide, reference compound]",5.9,5.3,174 +/- 2.1 mm Hg,340 +/- 10.2 beats/min.,do not show antihypertensive action
